Results on 1 molecule are retold here after patent US20260133203A1, “DETECTION OF FUMARATE-DERIVED MODIFICATION IN A TEST SAMPLE” (UNIVERSITY OF SOUTH CAROLINA, priority 2017, published 2026).

The structures appear in SMILES notation. Where a name gives a salt, the structure may show the parent alone.

For the assay, the system named is N1E-115 neurons. Description: LC-MS/MS identification of succinated proteins in N1E-115 neurons. Conditions: DMF-treated N1E-115 neurons. In kind it is cell-based, mouse. As to the method:
N1E-115 cells (subclone N1E-115-1 neuroblastoma cells) were obtained from Sigma (08062511, St. Louis, MO). The cells were grown and expanded in non-differentiation medium (NDM): 90% DMEM (GibcoTM, Grand Island, NY) with 25 mM glucose, no pyruvate, 25 mM HEPES, 4 mM glutamine and 10% fetal bovine serum (FBS, Atlanta Biologicals, Atlanta, GA). At 80% confluence, the cells were differentiated into neurons in the presence of 2% FBS and 1.25% dimethyl sulfoxide in DMEM for 5 days. In addition to the assessment of the neuronal phenotype by light microscopy, the detection of synaptophysin protein levels was used to confirm successful differentiation. […] After gel extraction, the peptides were re-suspended in 1% acetic acid and analyzed on a DionexTM […] system (Thermo ScientificTM, Rockford, IL) coupled to an Orbitrap Velos ProTM mass spectrometer (Thermo ScientificTM, Rockford, IL). […] The data-dependent acquisition (DDA) data were analyzed using Proteome DiscovererTM 1.4 software with SEQUEST search engine against the uniprot_ref_mouse database (2014-10-03 version, 52,474 proteins) or uniprot_ref_rat database (2011-5-11 version, 39765 proteins) with Xcorr>1 validation (+2) and an allowance for 2 missed cleavages. […]

On to `COC(=O)/C=C/C(=O)OC` [DMF, dimethyl fumarate], for which the “number of protein subunits modified by either DMF or MMF” value stood at 15.
